Laboratory results from article PMC5546478 (Oncotarget, 2017).
Entries after “also recorded” stand apart in the source; their conditions may differ. Counter-ions that a name gives are not always drawn. Like-named read-outs stand apart in the source and are kept apart here. Blank lines part the entries; values can stand above or below the compound they belong to.

Tests used:
WT IDH1 = biological target: T1, WT IDH1 (Homo sapiens, UniProt O75874); assay: In vitro enzyme inhibition assay, WT IDH1 (NADPH production); type: biochemical; settings: for IC50 / IC50 for enzyme activities, WT: n.p = no clear inhibitory detected; for IC50: read-out: IC50 for enzyme activities, WT
T1 construct: made in house
T1 sequence (O75874 whole entry): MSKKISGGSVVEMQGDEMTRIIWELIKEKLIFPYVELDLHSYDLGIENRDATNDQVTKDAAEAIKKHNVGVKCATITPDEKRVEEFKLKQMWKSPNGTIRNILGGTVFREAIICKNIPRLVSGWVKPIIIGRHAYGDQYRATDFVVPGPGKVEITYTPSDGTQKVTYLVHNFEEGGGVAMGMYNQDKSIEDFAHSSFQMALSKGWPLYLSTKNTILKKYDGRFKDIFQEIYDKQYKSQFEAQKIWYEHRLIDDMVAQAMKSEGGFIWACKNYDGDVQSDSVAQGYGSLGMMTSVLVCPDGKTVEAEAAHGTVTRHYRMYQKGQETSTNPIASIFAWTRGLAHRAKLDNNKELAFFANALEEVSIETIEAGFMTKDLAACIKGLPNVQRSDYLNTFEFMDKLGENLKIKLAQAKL
Procedure: For inhibition assay, firstly, triplicate samples of compounds were incubated with the protein for 5 min.

mutant IDH1 = settings: cited from earlier work
HT1080 cells = assay: Flow cytometric analysis for apoptosis (Annexin V/PI); type: cell-based, human; settings: control 2%
Procedure: Then the cells were harvested, washed twice with ice-cold PBS, and mixed in 100 μL of 1 × binding buffer (10 mM HEPES/NaOH, pH 7.4, 140 mM NaCl, 2.5 mM CaCl2). After culturing for 15 min at room temperature in Annexin-V/PI (Nanjing KeyGen Biotech. Inc.) double staining liquid, the cells were examined by flow cytometry (BD Biosciences, FACSCalibur).

HT1080 xenograft = assay: Antitumor efficacy in HT1080 xenograft mouse model; type: in vivo, CB-17/Icr-scid mice; settings: for Tumor weight: after 2 weeks' treatment, control 2.32 ± 0.93 g; for Tumor volume: model 1879.61±244.35
Source text: In the xenograft model, HT1080 cells were inoculated subcutaneously into the right flank of male CB-17/Icr-scid mice.

[1] = system: H3K9me3 in HT1080 tumor tissue; assay: Immunohistochemistry for H3K9me3 in xenograft tumor tissues; type: in vivo, CB-17/Icr-scid mice; settings: clomifene treated groups (50, 100 mg/kg) vs vehicle
H3K9me3 in HT1080 cells [2] = assay: Immunocytochemical staining of H3K9me3; type: cell-based, human
[3] = system: mutant IDH1 (D-2HG production); assay: D-2HG concentrations in tumors and serum of HT1080 xenograft mice; type: in vivo, CB-17/Icr-scid mice; settings: for percentage inhibition of D-2HG production in tumor tissue: normalized to control group; for R-2HG level in serum: model 5.97 ±2.58; for R-2HG level in tumor tissue: model 364.01 ±118.43
[4] = 50 and 100 mg/kg per day via gavage
H3K9me3 in HT1080 cells [5] = assay: Histone methylation H3K9me3 by western blot; type: cell-based, human; settings: 48 hours

SMILES: Cc1ccccc1C(C(=O)NC1CCCCC1)N(C(=O)Cn1ccnc1C)c1cccc(F)c1 (centres unmarked) [AGI-5198]
- IC50 (WT IDH1): > 200 µM
- kinetic mechanism with respect to NADPH (mutant IDH1; mutant IDH1): uncompetitive
- kinetic mechanism with respect to α-KG (mutant IDH1; mutant IDH1): competitive inhibitor

SMILES: CC(C)(C)CC(C)(C)c1cc(Cn2ccnc2)c(O)c(Cn2ccnc2)c1 [2,6-bis (1H-imidazol-1-ylmethyl)-4-(2,4,4-trimethylpentan-2-yl) phenol]
- manner of inhibition of mutant IDH1 (mutant IDH1; ligand of crystal structure 4UMX, binds allosteric site): non-competitive and allosteric inhibitor

SMILES: CCN(CC)CCOc1ccc(C(=C(Cl)c2ccccc2)c2ccccc2)cc1 [Clomifene]
- apoptotic death (HT1080 cells; 10 μM): 12.88%
- apoptotic death (HT1080 cells; 20 μM): 23.61%
- percentage inhibition of tumor volume (HT1080 xenograft; 50 mg/kg per day via gavage): 51.71%
- percentage inhibition of tumor weight (HT1080 xenograft; 50 mg/kg per day via gavage): 38.36%
- Tumor weight (HT1080 xenograft; 50 mg/kg per day via gavage): 1.43 ± 0.42 g
- percentage inhibition of tumor weight (HT1080 xenograft; 50 mg/kg per day via gavage, listed as clomifene): about 60%
- Tumor volume (HT1080 xenograft; 50 mg/kg per day via gavage): 907.73±176.63 mm3
- percentage inhibition of tumor volume (HT1080 xenograft; 100 mg/kg per day via gavage): 65.80%
- percentage inhibition of tumor weight (HT1080 xenograft; 100 mg/kg per day via gavage): 59.48%
- Tumor weight (HT1080 xenograft; 100 mg/kg per day via gavage): 0.94 ± 0.61 g
- Tumor volume (HT1080 xenograft; 100 mg/kg per day via gavage): 642.91±127.02 mm3
- tumor growth of HT1080-bearing mice (HT1080 xenograft; oral 100 mg/kg and 50 mg/kg per day): significantly suppressed
- Effect on WT IDH1 (WT IDH1; at 200 μM): did not obviously alter
- IC50 (WT IDH1): > 200 µM
- expressions of H3K9me3 in tumor tissues [1]: substantially reduced
- mutant IDH1-mediated H3K9me3 (H3K9me3 in HT1080 cells [2]): substantially and dose-dependently decreased
- percentage inhibition of R-2HG in serum ([3]; 50 mg/kg): 51.59%
- percentage inhibition of D-2HG production in tumor tissue ([3]; 50 mg/kg): 23.81%
- R-2HG level in serum ([3]; 50 mg/kg): 2.89 ± 1.06 µM
- R-2HG level in tumor tissue ([3]; 50 mg/kg): 277.34 ± 78.03 µg/g
- percentage inhibition of D-2HG production in tumor tissue ([3]; 100 mg/kg): 57.38%
- R-2HG level in serum ([3]; 100 mg/kg): 1.47 ± 1.38 µM
- R-2HG level in tumor tissue ([3]; 100 mg/kg): 155.12 ± 74.34 µg/g
- effect on mouse body weight [4]: no effect
- effect on mouse body weight ([4]; listed as clomifene): no obvious side effects on animals’ growth
- level of histone methylation (H3K9me3) (H3K9me3 in HT1080 cells [5]): significantly reduced; also recorded: markedly decrease

SMILES: OC(Cn1cncn1)(Cn1cncn1)c1ccc(F)cc1F [Fluconazole]
- IC50 for enzyme activities, WT (WT IDH1): n.p

SMILES: COc1ccc(-c2ccc3cc(C(=O)O)ccc3c2)cc1C12CC3CC(CC(C3)C1)C2 [Adapalene]
- IC50 for enzyme activities, WT (WT IDH1): n.p

SMILES: C=C1c2cccc(O)c2C(=O)C2=C(O)[C@]3(O)C(=O)C(C(N)=O)=C(O)[C@@H](N(C)C)[C@@H]3[C@@H](O)[C@H]12 [Metacycline]
- IC50 for enzyme activities, WT (WT IDH1): n.p

SMILES: CO[C@@]1(NC(=O)Cc2cccs2)C(=O)N2C(C(=O)O)=C(COC(N)=O)CS[C@@H]21 [Cefoxitin sodium]
- IC50 (WT IDH1): > 200 µM

SMILES: CN(C)[C@@H]1C(O)=C(C(N)=O)C(=O)[C@@]2(O)C(O)=C3C(=O)c4c(O)ccc(Cl)c4[C@@H](O)[C@H]3C[C@@H]12 [Demeclocycline]
- IC50 for enzyme activities, WT (WT IDH1): n.p^e

The next lines start with the values.

- IC50 (WT IDH1): > 200 µM
SMILES: O=C(NC[C@H]1CN(c2ccc(N3CCOCC3=O)cc2)C(=O)O1)c1ccc(Cl)s1 [Rivaroxaban]

- IC50 for enzyme activities, WT (WT IDH1): n.p
SMILES: CCCNCC(O)COc1ccccc1C(=O)CCc1ccccc1 (centres unmarked) [Propafenone Hydrochloride]

- IC50 for enzyme activities, WT (WT IDH1): n.p
SMILES: CN(C)c1cc(NC(=O)CNC(C)(C)C)c(O)c2c1C[C@H]1C[C@H]3[C@H](N(C)C)C(O)=C(C(N)=O)C(=O)[C@@]3(O)C(O)=C1C2=O [Tigecycline]
